The assay relates to human cytomegalovirus (HCMV). As to the kind of experiment: Antiviral activity against HCMV, virus yield/replication assay in MRC5 cells. Type of assay: cell-based. The settings on record: Human betaherpesvirus 5; infected human MRC5 cells; virus yield in supernatant at 96 hours / four days, read by IE protein expression in fresh MRC5 cells. The method, then: Assessing Antiviral Activity Against Human Cytomegalovirus (HCMV)
To assess their antiviral activity, some compounds were tested against human cytomegalovirus (HCMV) in vitro. Human MRC5 cells were grown in Dulbecco's Modified Eagle Medium (DMEM) supplemented with 10% fetal bovine serum (FBS) and infected with an HCMV variant expressing GFP tagged pUL99 (the product of late viral UL99 gene) at a multiplicity of 1 infectious unit (IU) per cell. One hour later, medium of the cells was replaced with fresh medium containing the indicated compounds at 50, 25, 12.5, 6.25, 3.13, 1.56, 0.78, 0.39 μM or the carrier in which the compounds are dissolved (DMSO). Final concentration of DMSO was 0.5% in each treatment. Virus yield in the culture supernatant was determined at 96 hours after infection by infecting fresh MRC5 cells and assaying viral IE1 protein expression. Results were plotted using either Prism Software or CDD Vault (CDD Vault was developed by Collaborative Drug Discovery, Inc., 1633 Bayshore Hwy, Suite 342, Burlingame, Calif. 94010) in order to calculate IC50s.
Alternatively, antiviral efficacy of some compounds was assessed by inhibition of HCMV replication during in vitro replication assays. Briefly, confluent monolayers of MRC5 fibroblasts in a 96 well plate format (˜1.0×10^4 cells/well) were infected with an AD169 strain of HCMV for one hour. After the initial incubation hour, virus containing media was removed and 100 ul of media with sequential dilutions of FORGE compounds added to each well. The concentrations of the FORGE compounds were 50 μM, 25 μM, […], 6.25 μM, 3.125 μM, 1.56 μM, and 0.78125 μM as well as a vehicle control (0.5% DMSO). The concentration of DMSO was constant between all conditions. Assays were performed in duplicate. Infected plates were returned to the incubator and the viral infection was allowed to progress for four days. On the fourth day, 50 μL of cell free supernatant was collected from each well and used to infect a new 96 well plate seeded with a confluent monolayer of MRC5 fibroblasts along with 50 μL of media to bring the total volume to 100 μL. The next day the media was removed and the infected monolayer was fixed with cold methanol, and Immediate Early proteins were detected by immunofluorescence assays to quantify the number of cells that were infected with HCMV. IE gene expression was quantified within five random fields within each well and corresponding numbers were utilized to determine viral replication. Results from each well were normalized to the vehicle control well so as to allow a percent reduction from no drug treatment to be calculated. Results were plotted using either Prism Software or CDD Vault in order to calculate IC50s.
With `COc1ccc(C(C)CCNc2cnc3ccccc3c2)cc1` (stereo not drawn) [Example 1], the IC50 is 25 to 50 µM.

In turn, `COc1ccc(C(C)CC(=O)Nc2cnc3ccccc3c2)cc1` (stereo not drawn) [Example 2] returned an IC50 greater than 50 µM.

For `COc1cccc(C(C)CCNc2cnc3ccccc3c2)c1` (stereo not drawn) [Example 3], the IC50 fell in the range of 25 to 50 µM.

Consider `COc1cccc(C(C)CC(=O)Nc2cnc3ccccc3c2)c1` (stereo not drawn) [Example 4], for which the IC50 worked out at 21.2 ± 14.5 µM.

Regarding `CC(CCNc1cnc2ccccc2c1)c1ccccc1Cl` (stereo not drawn) [Example 5], the IC50 is 18.6 ± 4.62 µM.

Turning to `CC(CC(=O)Nc1cnc2ccccc2c1)c1ccccc1Cl` (stereo not drawn) [Example 6], inhibition was half-maximal at 21.1 ± 14.5 µM (IC50).

`CC(CCNc1cnc2ccccc2c1)c1ccccc1` (stereo not drawn) [Example 7] returned a half-inhibitory concentration (IC50) greater than 50 µM.

The compound `CC(CC(=O)Nc1cnc2ccccc2c1)c1ccccc1` (stereo not drawn) [Example 8] displayed an IC50 of 3.03 ± 0.69 µM.

Consider `COc1ccc(C(C)CCNc2ccc3ncccc3c2)cc1` (stereo not drawn) [Example 9], for which half-maximal inhibition (IC50) was put at 2.41 ± 0.04 µM.

The compound `COc1ccc(C(C)CC(=O)Nc2ccc3ncccc3c2)cc1` (stereo not drawn) [Example 10] registered an IC50 of 5.82 ± 1.98 µM.

On to `COc1cccc(C(C)CCNc2ccc3ncccc3c2)c1` (stereo not drawn) [Example 11], for which the IC50 stood at 5.75 ± 2.47 µM.

For the compound `COc1cccc(C(C)CC(=O)Nc2ccc3ncccc3c2)c1` (stereo not drawn) [Example 12], the midpoint of inhibition, the IC50, lay at 3.34 ± 1.45 µM.

Take `COc1ccccc1C(C)CCNc1ccc2ncccc2c1` (stereo not drawn) [Example 13]: the IC50 was 23.4 ± 0.6 µM.

With `COc1ccccc1C(C)CC(=O)Nc1ccc2ncccc2c1` (stereo not drawn) [Example 14], the IC50 stood at 2.2 ± 1.32 µM.

In turn, `COc1ccc(C(C)CCNc2cccc3cccnc23)cc1` (stereo not drawn) [Example 15] returned an IC50 of 3.27 ± 0.41 µM.

In the case of `COc1ccc(C(C)CC(=O)Nc2cccc3cccnc23)cc1` (stereo not drawn) [Example 16], the IC50 came to 26.9 ± 11.5 µM.

As for `COc1cccc(C(C)CCNc2cccc3cccnc23)c1` (stereo not drawn) [Example 17], the midpoint of inhibition, the IC50, lay at 2.69 ± 0.94 µM.

As to `COc1cccc(C(C)CC(=O)Nc2cccc3cccnc23)c1` (stereo not drawn) [Example 18], the IC50 is greater than 50 µM.

Consider `COc1ccccc1C(C)CCNc1cccc2cccnc12` (stereo not drawn) [Example 19], for which the IC50 turned out to be 1.28 ± 0.16 µM.

In turn, `COc1ccccc1C(C)CC(=O)Nc1cccc2cccnc12` (stereo not drawn) [Example 20] returned an IC50 of 19.7 ± 14.7 µM.

`CC(CCNc1cccc2cccnc12)c1ccccc1Cl` (stereo not drawn) [Example 21]: the IC50 worked out at 1.2 ± 0.52 µM.

In turn, `CC(CC(=O)Nc1cccc2cccnc12)c1ccccc1Cl` (stereo not drawn) [Example 22] registered an IC50 of 1.28 ± 1.82 µM.

Turning to `Cc1ccccc1C(C)CCNc1cccc2cccnc12` (stereo not drawn) [Example 23], the IC50 was 2.01 ± 0.71 µM.

In the case of `Cc1ccccc1C(C)CC(=O)Nc1cccc2cccnc12` (stereo not drawn) [Example 24], the IC50 was greater than 50 µM.

Turning to `COc1ccccc1C(C)C(F)CNc1cccc2cccnc12` (stereo not drawn) [Example 25], the IC50 turned out to be 3.73 ± 0.46 µM.

`COc1ccccc1C(C)C(F)C(=O)Nc1cccc2cccnc12` (stereo not drawn) [Example 26]: the IC50 is 5.38 ± 3.93 µM.

Turning to `COc1ccccc1C(C)C(O)CNc1cccc2cccnc12` (stereo not drawn) [Example 27], half-maximal inhibition (IC50) was put at 28.5 ± 2.68 µM.

The compound `COc1ccccc1C(C)C(C)CNc1cccc2cccnc12` (stereo not drawn) [Example 28] had an IC50 of 2.89 ± 0.95 µM.

With `COc1ccccc1C(C)C(C)C(=O)Nc1cccc2cccnc12` (stereo not drawn) [Example 29], the IC50 was found to be 11.5 ± 7.71 µM.

Take `COc1ccccc1CCCNc1cccc2cccnc12` [Example 30]: 12.1 ± 8.44 µM corresponded to half-maximal inhibition (IC50).

Consider `COc1ccccc1CCC(=O)Nc1cccc2cccnc12` [Example 31], for which the IC50 is greater than 50 µM.

`CCC(CCNc1cccc2cccnc12)c1ccccc1OC` (stereo not drawn) [Example 32] displayed an IC50 of 2.25 ± 0.33 µM.

Compound `CCC(CC(=O)Nc1cccc2cccnc12)c1ccccc1OC` (stereo not drawn) [Example 33] registered an IC50 of 5.3 ± 0.31 µM.

In turn, `CC(CCNc1cccc2cccnc12)c1ccccn1` (stereo not drawn) [Example 34] yielded an IC50 greater than 50 µM.

In turn, `CC(CC(=O)Nc1cccc2cccnc12)c1ccccn1` (stereo not drawn) [Example 35] registered an IC50 greater than 50 µM.

As for `COc1ccccc1C(C)CCn1ccc2ccccc21` (stereo not drawn) [Example 36], the IC50 is greater than 50 µM.

`COc1ccccc1C(C)CC(=O)n1ccc2ccccc21` (stereo not drawn) [Example 37]: the IC50 was greater than 50 µM.

`COc1ccccc1C(C)CCNc1cccc2nccnc12` (stereo not drawn) [Example 38] yielded a half-maximal inhibitory concentration (IC50) of 3.61 ± 0.54 µM.

In the case of `COc1ccccc1C(C)CC(=O)Nc1cccc2nccnc12` (stereo not drawn) [Example 39], the IC50 was greater than 50 µM.

In the case of `COc1ccccc1C(C)CCNc1cccc2ccccc12` (stereo not drawn) [Example 40], the IC50 amounted to 2.83 ± 0.28 µM.

Take `COc1ccccc1C(C)CC(=O)Nc1cccc2ccccc12` (stereo not drawn) [Example 41]: the IC50 stood at 29.2 ± 17.8 µM.

With `COc1ccccc1C(C)CCNc1cccc2[nH]ccc12` (stereo not drawn) [Example 42], the IC50 worked out at 1.32 ± 0.84 µM.

`COc1ccccc1C(C)CC(=O)Nc1cccc2[nH]ccc12` (stereo not drawn) [Example 43] registered an IC50 of 12.5 ± 4.14 µM.

For the compound `COc1ccccc1C(C)CCNc1ccccc1` (stereo not drawn) [Example 44], the IC50 was greater than 50 µM.

For `COc1ccccc1C(C)CC(=O)Nc1ccccc1` (stereo not drawn) [Example 45], the IC50 is greater than 50 µM.

`COc1ccc(Br)cc1C(C)CCNc1cccc2cccnc12` (stereo not drawn) [Example 46] registered an IC50 of 21.7 ± 2.48 µM.

Consider `COc1ccc(Br)cc1C(C)CC(=O)Nc1cccc2cccnc12` (stereo not drawn) [Example 47], for which the IC50 is 5.88 ± 1.93 µM.

`CC(CCNc1cccc2cccnc12)c1ccccc1` (stereo not drawn) [Example 48] returned an IC50 greater than 50 µM.

The compound `CC(CC(=O)Nc1cccc2cccnc12)c1ccccc1` (stereo not drawn) [Example 49] yielded an IC50 greater than 50 µM.

Take `CC(CCNc1cccc2cccnc12)c1ccccc1Br` (stereo not drawn) [Example 50]: the IC50 was determined as 2.92 ± 1.26 µM.

Compound `CC(CCNc1cccc2cccnc12)c1c(Cl)cccc1Cl` (stereo not drawn) [Example 51] had an IC50 of 1.94 ± 0.51 µM.

Compound `CC(CCOc1cccc2cccnc12)c1ccccc1Cl` (stereo not drawn) [Example 52] showed an IC50 of 1.98 ± 0.68 µM.

`CC(CCNc1ccc(Br)c2cccnc12)c1ccccc1` (stereo not drawn) [Example 53]: the IC50 was 11.6 ± 0.36 µM.

Regarding `CC(CNc1cccc2nccnc12)C(C)c1ccc(Cl)cc1Cl` (stereo not drawn) [Example DV7016], the IC50 came out at 23.1 µM.

With `CC(CNc1cccc2nccnc12)C(C)c1cc(Cl)ccc1Cl` (stereo not drawn) [Example FLS-114], the IC50 was 6.4 µM.

As for `CC(CNc1cccc2[nH]ccc12)C(C)c1ccccc1Cl` (stereo not drawn) [Example FLS-116], the IC50 worked out at 3.5 µM.

`CC(CNc1cccc2nccnc12)c1ccccc1Cl` (stereo not drawn) [Example FLS-117] showed an IC50 of 3.2 µM.

As for `CC(CNc1cccc2nccnc12)c1cc(Cl)ccc1Cl` (stereo not drawn) [Example FLS-118], the IC50 came out at 3.2 µM.

For `CC(CNc1cccc2nccnc12)c1cc(Cl)cc(Cl)c1` (stereo not drawn) [Example FLS-119], half-maximal inhibition (IC50) required 2.7 µM.

As for `CC(CNc1cccc2[nH]ccc12)c1ccccc1Cl` (stereo not drawn) [Example FLS-120], the IC50 was 5 µM.

Take `CC(CCNc1ccc(Br)c2cccnc12)c1ccccc1Cl` (stereo not drawn) [FH000006-K-6]: the IC50 stood at 7.9 µM.

`CC(CCC(=O)Nc1cccc2cccnc12)c1ccccc1Cl` (stereo not drawn) [FH000006-K-8-A] gave an IC50 of 4.5 µM.

In the case of `CC(CCCNc1cccc2cccnc12)c1ccccc1Cl` (stereo not drawn) [FH000006-K-8], the IC50 amounted to 6.3 µM.

As a reminder, the IC50 is the concentration needed to halve the response being measured. A lower IC50 goes with higher potency.

Values taken from US10723708B2, “Anti-HCMV compositions and methods” (FORGE Life Science, LLC, priority 2014, dated 2020).
